Target: T1, IFN-y (Homo sapiens, UniProt P01579)
T1 sequence (P01579 24-166): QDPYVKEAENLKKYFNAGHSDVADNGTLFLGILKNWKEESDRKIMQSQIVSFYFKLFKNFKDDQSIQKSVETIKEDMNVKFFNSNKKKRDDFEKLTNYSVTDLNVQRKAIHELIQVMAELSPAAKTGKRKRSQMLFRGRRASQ
Assay: Binding of PEG-modified form to IFN-y by SPR (Surface Plasmon Resonance)
Conditions: PEG (40000) on base X
Text: With the base of X produced in Example 2, Aptamer 3 (1 eq) having a primary amine side chain and commercially available NHS-PEG (40000) (1.5 eq) were mixed in a phosphate buffer at pH 7 to 8 and the mixture was stirred for 1 day at room temperature. The reaction solution was concentrated and the resulting modified form was purified by reversed phase HPLC to obtain a PEG-modified form of Aptamer 3.

## PEG-modified form of Aptamer 3: Aptamer 3 having a primary amine side chain at X reacted with NHS-PEG (40000) (CCCGCCCGGGTCCGCGAAGCGGTAGGTNTGGGCTAGGCNGCTGGCGGGCGCGNAGCG; DNA aptamer, amine side-chain residue X conjugated to 40 kDa PEG, further chemistry not given here)
  ability to bind to IFN-y: retained its ability to bind to IFN-y
Listed as PEG-modified form of a DNA aptamer having the sequence of SEQ ID NO: 3
  ability to bind to IFN-y: capable of binding to IFN-γ

From EP4566614A1, “DRY EYE REMEDY CONTAINING DNA OLIGONUCLEOTIDE […] BINDING TO IFN-y” (TAGCyx Biotechnologies Inc., priority 2022, dated 2024)
